Experimental findings from paper PMC8583417, “Evaluation of the Antimicrobial Efficacy of N-Acetyl-L-Cysteine, Rhamnolipids, and Usnic Acid—Novel Approaches to Fight Food-Borne Pathogens” (International Journal of Molecular Sciences, 2021) are described below.

Assay [1] relates to S. Infantis S13. As to the kind of experiment: MIC for biofilm formation (crystal violet staining). To be noted: for MICBF80: ≥80% prevention, 24 h. The class given is cell-based, Salmonella enterica Infantis. On the procedure:
(§1) Ten concentrations of NAC, RLs, and UA were tested to determine the minimum inhibitory concentration for planktonic growth, and subsequently, the six highest concentrations were applied on preformed biofilms to evaluate the biofilm eradication ability of the compounds. MIC was defined as the lowest substance concentration able to inhibit at least 80% of microbial growth (MICPC80 for planktonic cells, MICBC80 for further growth of biofilm cells), inhibit 80% of metabolic activity (MICBM80 for biofilm metabolic activity, MICMPB80 for metabolic activity of preformed biofilm), prevent biofilm formation by at least 80% (MICBF80 for biofilm formation), or reduce a preformed biofilm by at least 80% (MICBR80 for biofilm reduction). The results of MICs are summarized in Table 1 (planktonic cells) and Table 2 (biofilm-associated cells).
(§2) The determination of MICs was performed according to Chlumsky et al.. Briefly, 96-well flat-bottomed microtiter plates were inoculated with 75 µL (for biofilm formation) or 100 µL (for preformed biofilm) of bacterial suspension (A625nm 0.08 to 0.1) in technical triplicates and were then carefully mixed with the dilution series of the test substances (24 h cultivation at 25 °C for S. Infantis, 37 °C for other strains) or were directly cultivated to preform biofilms (18 h). For a positive control of bacterial growth, the inoculum was mixed with a pure sterile medium. Furthermore, the sterile medium was included in the plate as a marker of potential microbial contamination. To evaluate planktonic cells growth (MICPC80) and further growth of biofilm cells (MICBC80), the optical density of the content of the microtiter plates was measured spectrophotometrically at 625 nm before and after 24 h (for biofilm formation) of cultivation or before and after additional 20 h incubation with the tested compound (for preformed biofilm). The difference of A625nm was considered as a measure of the ability of cells to grow in the presence of the tested substances. To evaluate the inhibition of biofilm formation (MICBF80) and reduction in preformed biofilms (MICBR80), biomass was quantified using crystal violet staining, and its metabolic activity (MICBM80 and MICMPB80) was estimated by using the MTT (thiazyl tetrazolium bromide, Sigma-Aldrich, USA) reduction assay, both measured spectrophotometrically at 595 nm.
(§3) All inhibitions were calculated using the formula of Chlumsky et al. below (Equation (1)):(1) A625(595)nm inhibition (%)=A625(595)nm (control) – A625(595)nm(natural substance)/A625(595)nm (control)× 100 where A625(595)nm (control) is the absorbance of bacterial suspension/biofilm itself, and A625(595)nm(natural substance) is the absorbance of the bacterial suspension/biofilm with the added natural substance (NAC, RLs, and UA).
(§4) When the minimum inhibitory concentration could not be determined, the MIC was established as >the highest tested concentration for NAC, RLs, and UA.

Assay [2] relates to S. Infantis S59. Described as above. In kind it is cell-based, Salmonella enterica Infantis. To be noted: for MICBF80: ≥80% prevention, 24 h. On the procedure:
as §1, §2, §3, §4

Assay [3] concerns E. coli 683/17. As to the kind of experiment: MIC for biofilm metabolic activity (MTT reduction assay). To be noted: for MICBM80: ≥80% inhibition, 24 h. The class given is cell-based, Escherichia coli. On the procedure: as §1, §2, §3, §4
For orientation: Formazan colour is commonly taken as a measure of viable cells.

The test system of assay [4] is E. coli 693/17. The assay is described as above. The class given is cell-based, Escherichia coli. Conditions: for MICBM80: ≥80% inhibition, 24 h. On the procedure:
as §1, §2, §3, §4

For assay [5], the system named is S. Enteritidis ATCC 13076. As to the kind of experiment: MIC for reduction of preformed biofilm (crystal violet staining). Conditions: for MICBR80: ≥80% reduction of preformed biofilm (18 h), 20 h with substance. In kind it is cell-based, Salmonella enterica Enteritidis. On the procedure: as §1
(§5) The determination of MICs was performed according to Chlumsky et al.. […] To evaluate planktonic cells growth (MICPC80) and further growth of biofilm cells (MICBC80), the optical density of the content of the microtiter plates was measured spectrophotometrically at 625 nm before and after 24 h (for biofilm formation) of cultivation or before and after additional 20 h incubation with the tested compound (for preformed biofilm). […] To evaluate the inhibition of biofilm formation (MICBF80) and reduction in preformed biofilms (MICBR80), biomass was quantified using crystal violet staining, and its metabolic activity (MICBM80 and MICMPB80) was estimated by using the MTT (thiazyl tetrazolium bromide, Sigma-Aldrich, USA) reduction assay, both measured spectrophotometrically at 595 nm.
(§6) All inhibitions were calculated using the formula of Chlumsky et al. below (Equation (1)):(1) A625(595)nm inhibition (%)=A625(595)nm (control) – A625(595)nm(natural substance)/A625(595)nm (control)× 100 where A625(595)nm (control) is the absorbance of bacterial suspension/biofilm itself, and A625(595)nm(natural substance) is the absorbance of the bacterial suspension/biofilm with the added natural substance (NAC, RLs, and UA). […]

The subject of assay [6] is cell lines HRTEC, HaCat, HDF, HEK 293, HCAEC. Briefly: Acute cytotoxicity, resazurin assay, summary over cell lines. The class given is cell-based, human. Conditions: 72 h. The source says: To test the acute cytotoxicity of the compounds, the following cell lines were used: primary human renal tubular epithelial cells (HRTEC; Evercyte, Vienna, Austria); human keratinocytes (HaCat; Thermo Fisher Scientific, Waltham, MA, USA); human dermal fibroblasts (HDF; Merck, Kenilworth, NJ, USA); human epithelial kidney cells (HEK 293; ATCC, Manassas, VI, USA); primary human coronary artery endothelial cells (HCAEC; ATCC, Manassas, VI, USA). The cell lines were maintained in a proper cultivation medium—HaCat, HDF, and Hek 293 in DMEM; HRTEC in VCB; HCAEC in ProxUp. The cytotoxicity experiment was realized according to Tran et al.. Briefly, the cells were counted by the Cellometer Auto T4 (Nexcelom Bioscience, Lawrence, MA, USA), and the cell suspension containing a cell density of 10^5 cells/mL was split into the 96-well plate, with 100 µL per well. The plates were then incubated for 24 h at 37 °C in a humidified atmosphere of 5% CO2. Then, the plates were washed three times with PBS, and the tested natural compounds were added using binary dilution in a proper medium. After 72 h of incubation, the cell viability was tested by resazurin assay. The fluorescence was measured by a SpectraMax i3× microplate reader (San Jose, CA, USA) at a wavelength of 560 nm excitation/590 nm emission.
The cytotoxicity results are expressed as the average IC50 ± standard error of the mean (SEM). […]
For orientation: The colour change of resazurin is a common sign of viable cells or microbes.

The subject of assay [7] is S. aureus 1241. Briefly: MIC for further growth of biofilm cells, preformed biofilm (A625nm). In kind it is cell-based, Staphylococcus aureus. Conditions: ≥80% inhibition, 18 h preformed biofilm, 20 h with substance. On the procedure:
as §1, §5, §6

In assay [8] the test system is S. Infantis S13. As to the kind of experiment: MIC for biofilm metabolic activity (MTT reduction assay). In kind it is cell-based, Salmonella enterica Infantis. To be noted: for MICBM80: ≥80% inhibition, 24 h. On the procedure:
as §1, §2, §3, §4

Assay [9] has as its system S. Infantis S59. The description is as above. The class given is cell-based, Salmonella enterica Infantis. To be noted: for MICBM80: ≥80% inhibition, 24 h. On the procedure: as §1, §2, §3, §4
For assay [10], the system named is S. Enteritidis ATCC 13076. As to the kind of experiment: MIC for metabolic activity of preformed biofilm (MTT reduction assay). To be noted: for MICMPB80: ≥80% inhibition, 20 h with substance. The class given is cell-based, Salmonella enterica Enteritidis. On the procedure:
as §1, §5, §6

The next assay concerns S. aureus 816. As to the kind of experiment: MIC for planktonic cell growth (A625nm). In kind it is cell-based, Staphylococcus aureus. To be noted: ≥80% inhibition, 24 h. On the procedure:
as §1
as §2, with “Furthermore, the sterile medium was included in the plate as a marker of potential microbial contamination.” left out, “The difference of A625nm was considered as a measure of the ability of cells to grow in the presence of the tested substances.” left out
as §3, §4

In assay [11] the test system is S. aureus 1241. Briefly: MIC for planktonic cell growth (A625nm). The class given is cell-based, Staphylococcus aureus. To be noted: ≥80% inhibition, 24 h. On the procedure: as §1
as §2, with “Furthermore, the sterile medium was included in the plate as a marker of potential microbial contamination.” left out, “The difference of A625nm was considered as a measure of the ability of cells to grow in the presence of the tested substances.” left out
as §3, §4

Assay [12] relates to E. coli 693/17. As to the kind of experiment: MIC for biofilm formation (crystal violet staining). The class given is cell-based, Escherichia coli. To be noted: for MICBF80: ≥80% prevention, 24 h. On the procedure:
as §1, §2, §3, §4

The subject of assay [13] is E. coli 683/17. Briefly: MIC for further growth of biofilm cells, preformed biofilm (A625nm). To be noted: for MICBC80: ≥80% inhibition, 18 h preformed biofilm, 20 h with substance. In kind it is cell-based, Escherichia coli. On the procedure: as §1, §2, §3, §4
Assay [14] deals with E. coli 693/17. The assay is described as above. In kind it is cell-based, Escherichia coli. Conditions: for MICBC80: ≥80% inhibition, 18 h preformed biofilm, 20 h with substance. On the procedure:
as §1, §2, §3, §4

≈ marks a conversion by molar mass, not a printed value. A value given as a limit tells only on which side of the number the result lay.

With `CC(=O)c1c(O)c(C)c(O)c2c1OC1=CC(=O)C(C(C)=O)C(=O)C12C` (single isomer, unassigned; (+)) [UA, (+)-usnic acid], the “maximal achieved inhibition (MICBF80 not reached)” value in the assay with S. Infantis S13 [1] (within tested concentrations) was determined as 45%; in the assay on S. Infantis S59 [2] (within tested concentrations), 34%; with E. coli 693/17 [12] (within tested concentrations), 47%. Besides, the MICBF80 against S. Infantis S13 [1], against S. Infantis S59 [2] and against E. coli 693/17 [12] was > 31.3 µg/mL in each case. Also, the “maximal achieved inhibition (MICBM80 not reached)” value is 27% in the assay with E. coli 683/17 [3] (within tested concentrations), 16% in the assay on E. coli 693/17 [4] (within tested concentrations), 41% in the assay with S. Infantis S13 [8] (within tested concentrations) and 47% in the assay on S. Infantis S59 [9] (within tested concentrations). Further, the MICBM80 against E. coli 683/17 [3], against E. coli 693/17 [4], against S. Infantis S13 [8] and against S. Infantis S59 [9] was > 31.3 µg/mL in each case. In [5] (preformed biofilm, within tested concentrations), the “maximal achieved inhibition (MICBR80 not reached), biofilm reduction” value worked out at 0%. For the same compound, the MICBR80 in assay [5] is given as > 31.3 µg/mL. The “IC50, range over cell lines” value in [6] lay within 0.03 to 4.35 mg/L. Also, the MICBC80 in the assay with S. aureus 1241 [7] is 3.91 µg/mL; in the assay on E. coli 683/17 [13], > 31.3 µg/mL; against E. coli 693/17 [14], > 31.3 µg/mL. Further, the “maximal achieved inhibition (MICMPB80 not reached)” value in assay [10] (within tested concentrations) is listed as 53%. Also, in assay [10], the MICMPB80 was > 31.3 µg/mL. In addition, the MICPC80 in the assay on S. aureus 816 and with S. aureus 1241 [11] was 0.24 µg/mL throughout. The results for the “maximal achieved inhibition (MICBC80 not reached)” value in the assay on E. coli 683/17 [13] (within tested concentrations) and with E. coli 693/17 [14] (within tested concentrations) were 44% and 61%, respectively.

One may read the IC50 as the concentration needed to halve the response being measured. Take `CC(=O)N[C@@H](CS)C(=O)O` [NAC, N-Acetyl-L-cysteine]: the MICBF80 in the assay on S. Infantis S13 [1] is reported as 12,500 µg/mL; against S. Infantis S59 [2] it was 6250 µg/mL; in the assay with E. coli 693/17 [12], 6250 µg/mL. The MICBM80 in the assay with E. coli 683/17 [3] was 6250 µg/mL; against E. coli 693/17 [4], 6250 µg/mL; against S. Infantis S13 [8] it was 12,500 µg/mL; in the assay on S. Infantis S59 [9], 6250 µg/mL. The MICBR80 in assay [5] was 12,500 µg/mL. Further, the IC50 in [6] (Homo sapiens, read-out: IC50, range over cell lines) lay in the range of 460 to 4020 mg/L (≈ 2820 to 24600 µM). Further, the MICBC80 was determined as 6250 µg/mL with S. aureus 1241 [7], 6250 µg/mL in the assay with E. coli 683/17 [13] and 3130 µg/mL in the assay on E. coli 693/17 [14]. The MICMPB80 in [10] was 12,500 µg/mL. Moreover, the MICPC80 with S. aureus 816 and in the assay on S. aureus 1241 [11] was 3130 µg/mL each time.
